Measurements published in ChEMBL document CHEMBL4043183, “Elucidation of a carboxylate O-methyltransferase NcmP in nocamycin biosynthetic pathway” (2017).
In brackets after ≈: the same amount, converted by molar mass.

Columns and labels:
Type in all cases: functional
Bacillus subtilis = test: Antibacterial activity against Bacillus subtilis CCTCC AB2013121 by broth microdilution method
Bacillus thuringiensis = test: Antibacterial activity against Bacillus thuringiensis CCTCC AB2013119 by broth microdilution method
Micrococcus luteus = test: Antibacterial activity against Micrococcus luteus CCTCC AB2013120 by broth microdilution method
Enterococcus faecalis = test: Antibacterial activity against Enterococcus faecalis ATCC 29212 by broth microdilution method
Staphylococcus aureus = test: Antibacterial activity against Staphylococcus aureus ATCC 29213 by broth microdilution method

Work on COC(=O)[C@H]1[C@@H](C)O[C@@]2(C)CC(=O)[C@H]3O[C@@]12O[C@H]([C@H](C)/C=C(C)/C=C/C(O)=C1/C(=O)CNC1=O)[C@H]3C yielded an MIC (Bacillus subtilis) greater than 128 µg/mL, an MIC (Bacillus thuringiensis) of 0.5 µg/mL (≈ 0.993 µM) and an MIC (Micrococcus luteus) of 16 µg/mL (≈ 31.8 µM). For the same compound, the MIC (Enterococcus faecalis) was 4 µg/mL (≈ 7.94 µM) and the MIC (Staphylococcus aureus) was 32 µg/mL (≈ 63.5 µM).
CC(/C=C/C(O)=C1/C(=O)CNC1=O)=C\[C@@H](C)[C@H]1O[C@@]23O[C@H](C(=O)C[C@]2(C)O[C@H](C)[C@@H]3C(=O)O)[C@@H]1C showed an MIC (Bacillus subtilis) greater than 128 µg/mL, an MIC (Bacillus thuringiensis) of 32 µg/mL (≈ 65.4 µM) and an MIC (Micrococcus luteus) greater than 128 µg/mL. The MIC (Enterococcus faecalis) was greater than 128 µg/mL and the MIC (Staphylococcus aureus) was greater than 128 µg/mL.
